The record followed here is US9057929B2, “Quinolinium single crystals for use in nonlinear optics” (AJOU UNIVERSITY INDUSTRY-ACADEMIC COOPERATION FOUNDATION, priority 2011, dated 2015).

Like-named read-outs stand apart in the source and are kept apart here.

A short description of one data set: Solubility in methanol. The source says: Meanwhile, the solubility in methanol of the quinolinium derivative according to the present invention is illustrated in (a) of FIG. 6. […] The solid line in the graph is based on the known Van't Hoff thermodynamic equilibrium equation using an ideal solution.
A short description of data set [1]: Thermal properties by DSC and TGA at a scanning rate of 10° C./min (thermal weight-loss temperature Ti). The format is physicochemical. As to conditions: for Ti (thermal weight-loss temperature), second number of the Tm/Ti cell: intercept of leading edge of weight loss with baseline. Here is the method:
As results of measurement of thermal properties of the quinolinium derivative according to the present invention using differential scanning calorimetry (DSC) and thermogravimetric analysis (TGA) at a scanning rate of 10° C./min, the thermal weight-loss temperature Ti was estimated as a temperature at the intercept of the leading edge of the weight loss by the baseline of TGA scans.
A general note: In DSC, transitions show as peaks or steps in heat flow.

“2-(4-hydroxy-3-methoxystyryl)-1-methylquinolinium 4-methoxylbenzenesulfonate [HMQ-MBS]” returned a solubility in methanol in “Solubility in methanol” of 0.56 g/100 g methanol. Moreover, the “Ti (thermal weight-loss temperature), second number of the Tm/Ti cell” value (from here on “Ti (thermal weight-loss temperature)”) in data set [1] (TGA, 10° C./min) was 265/291 °C.

For the compound `CN(C)c1ccc(C=Cc2cc[n+](C)cc2)cc1.Cc1ccc(S(=O)(=O)[O-])cc1` [DAST, N,N-dimethylamino-N′-methylstilbazolium 4-methylbenzenesulfonate, reference compound], in data set [1] (TGA, 10° C./min), the “thermal stability of the crystal (FIG. 2)” value came out at 260 °C and the “Ti (thermal weight-loss temperature)” value was 250/250 °C.

For the compound `COc1cc(C=Cc2ccc3ccccc3[n+]2C)ccc1O.[I+]` [HMQ-I, 2-(4-hydroxy-3-methoxystyryl)-1-methylquinolinium iodine], the “solubility in methanol as a reaction solvent” value in the data set “Solubility in methanol” (methanol, temperature not given) turned out to be 0.14 g/100 g methanol. In the data set “Solubility in methanol”, `COc1cc(C=Cc2ccc3ccccc3[n+]2C)ccc1O.Cc1ccc(S(=O)(=O)[O-])cc1` [HMQ-T, 2-(4-hydroxy-3-methoxystyryl)-1-methylquinolinium 4-methylbenzenesulfonate] gave a solubility in methanol of 0.89 g/100 g methanol. Moreover, the “thermal stability of the crystal (FIG. 2)” value in data set [1] is “exceeding 290 °C”. Also, in data set [1] (TGA, 10° C./min), the “Ti (thermal weight-loss temperature)” value was 273/297 °C. In the case of `CC1(C)CC(C=Cc2ccc(O)cc2)=CC(=C(C#N)C#N)C1` [OH1, 2-(3-(4-hydroxystyryl)-5,5-dimethylcyclohex-2-enylidene)malononitrile, reference compound], the “Ti (thermal weight-loss temperature)” value in data set [1] (TGA, 10° C./min) is 212/325 °C.
